# Data taken from US12630521B2, “Arylamides and methods of use thereof” (Genzyme Corporation, priority 2019, dated 2026).
# Columns and labels:
# [1] = molecular target: T1, CFTR (ΔF508 homozygous CF-HBE cells) (Homo sapiens, UniProt P13569, DEL508-508); experiment: TECC24 AUC fold over DMSO @10 uM: CFTR-mediated transepithelial chloride transport in primary CF-HBE cells; assay type: cell-based; conditions: 10 μM test agent, 48 hours, forskolin-stimulated IEQ AUC divided by vehicle AUC
# T1 construct: Primary human bronchial epithelial cells from a ΔF508 homozygous CF donor; host or cells: primary CF-HBE cells (ΔF508/ΔF508 donor)
# T1 sequence (P13569 with tags, fused parts or gaps DEL508-508): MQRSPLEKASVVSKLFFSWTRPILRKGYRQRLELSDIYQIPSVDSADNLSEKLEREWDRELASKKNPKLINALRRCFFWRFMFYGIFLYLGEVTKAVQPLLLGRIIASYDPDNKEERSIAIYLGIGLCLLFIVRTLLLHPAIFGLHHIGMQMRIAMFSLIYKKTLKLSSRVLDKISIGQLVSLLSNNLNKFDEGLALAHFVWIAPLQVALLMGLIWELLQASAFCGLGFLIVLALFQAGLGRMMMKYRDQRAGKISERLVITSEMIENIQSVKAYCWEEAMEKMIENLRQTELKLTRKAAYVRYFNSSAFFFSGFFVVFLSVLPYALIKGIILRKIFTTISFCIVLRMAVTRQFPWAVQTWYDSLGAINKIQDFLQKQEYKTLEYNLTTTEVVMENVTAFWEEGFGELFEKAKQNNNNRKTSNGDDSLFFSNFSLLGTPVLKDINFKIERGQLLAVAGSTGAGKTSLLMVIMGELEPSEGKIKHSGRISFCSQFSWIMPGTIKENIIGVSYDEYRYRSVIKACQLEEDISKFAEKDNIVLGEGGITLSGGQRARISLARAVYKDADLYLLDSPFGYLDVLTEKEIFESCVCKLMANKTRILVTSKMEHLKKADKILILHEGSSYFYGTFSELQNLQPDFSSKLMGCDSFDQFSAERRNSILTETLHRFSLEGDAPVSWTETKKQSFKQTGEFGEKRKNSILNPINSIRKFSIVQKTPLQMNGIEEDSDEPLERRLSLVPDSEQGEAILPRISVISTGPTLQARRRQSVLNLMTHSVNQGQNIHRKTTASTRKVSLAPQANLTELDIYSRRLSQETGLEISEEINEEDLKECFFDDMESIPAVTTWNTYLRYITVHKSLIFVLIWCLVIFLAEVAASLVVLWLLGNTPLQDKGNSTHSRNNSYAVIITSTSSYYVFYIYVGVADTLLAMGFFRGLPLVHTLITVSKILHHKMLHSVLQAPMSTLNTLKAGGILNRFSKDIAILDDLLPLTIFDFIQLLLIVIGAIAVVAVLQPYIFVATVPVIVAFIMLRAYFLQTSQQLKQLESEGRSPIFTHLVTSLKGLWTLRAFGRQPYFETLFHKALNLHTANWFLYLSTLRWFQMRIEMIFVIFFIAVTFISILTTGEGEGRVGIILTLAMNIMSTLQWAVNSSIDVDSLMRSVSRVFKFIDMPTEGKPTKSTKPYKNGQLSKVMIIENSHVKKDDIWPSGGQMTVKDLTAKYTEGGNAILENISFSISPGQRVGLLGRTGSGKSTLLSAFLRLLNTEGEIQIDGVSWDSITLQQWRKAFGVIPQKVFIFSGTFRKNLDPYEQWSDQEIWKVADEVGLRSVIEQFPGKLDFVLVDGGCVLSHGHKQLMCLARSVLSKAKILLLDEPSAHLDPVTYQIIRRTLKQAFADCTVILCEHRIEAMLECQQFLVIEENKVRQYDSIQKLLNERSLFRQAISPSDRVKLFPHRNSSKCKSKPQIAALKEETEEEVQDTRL
# Description: Example 37: TECC24 AUC Fold Over DMSO @10 uM
# The effects of a test agent on CFTR-mediated transepithelial chloride transport was measured using TECC24 recording analysis. Test agents were solubilized in DMSO. Solubilized test agents were mixed with incubation medium containing DMEM/F12, Ultroser G (2%; Crescent Chemical, catalog #67042), Hyclone Fetal Clone 11(2%; GE Healthcare, catalog #SH30066.02), bovine brain extract (0.25%; Lonza, catalog #CC-4098), insulin (2.5 μg/mL), IL-13 (10 ng/mL), hydrocortisone (20 nM), transferrin (2.5 μg/mL), triiodothyronine (500 nM), ethanolamine (250 nM), epinephrine (1.5 μM), phosphoethanolamine (250 nM), and retinoic acid (10 nM). Primary human bronchial epithelial cells from a ΔF508 homozygous CF donor (CF-HBE cells; from University of North Carolina Cystic Fibrosis Tissue Procurement Center), grown on Transwell HTS 24-well cell culture inserts (Costar, catalog #3378), were exposed to test agents or controls dissolved in incubation medium. The CF-HBE cells were cultured at 36.5° C. for 48 hours before TECC24 recordings were performed in the presence or absence of test agent, a positive control or vehicle (DMSO).
# Following incubation, the transwell cell culture inserts containing the test agent or control-treated CF-HBE cells were loaded onto a TECC24 apparatus (TECC v7 or MTECC v2; EP Design) to record the transepithelial voltage (VT) and resistance (TEER) using 4 AgCl electrodes per well configured in current-clamp mode. The apical and basolateral bath solutions both contained (in mM) 140 NaCl, 5 KCl, 2 CaCl2, 1 MgCl2, 10 Hepes, and 10 glucose (adjusted to pH 7.4 with NaOH). To inhibit basal Na+ absorption, the ENaC inhibitor benzamil (10 μM) was added to the bath. Then, the adenylate cyclase activator, forskolin (10 μM), was added to the bath to activate CFTR. The forskolin-stimulated Cl— transport was halted by addition of CFTR inhibitor-172 (20 μM) to the bath at the end of the experiment to confirm specificity. VT and TEER recordings were digitally acquired at routine intervals using TECC or MTECC software (EP Design). VT and TEER were transformed into equivalent transepithelial Cl-current (IEQ), and the Area Under the Curve (AUC) of the IEQ time course between forskolin and CFTR inhibitor-172 addition is generated using Excel (Microsoft). Efficacy is expressed as the ratio of the test agent AUC divided by vehicle AUC. EC50s based on AUC are generated using the non-linear regression log(agonist) vs. response function in Prism software (GraphPad) with Hill Slope fixed=1.
# If a test agent increased the AUC of the forskolin-stimulated IEQ relative to vehicle in CF-HBE cells, and this increase was inhibited by CFTR inhibitor-172, then the test agent was considered a CFTR corrector.
# [2] = molecular target: T2, human Cystic Fibrosis Transmembrane Conductance Regulator (CFTR) harboring the ΔF508 mutation (Homo sapiens, UniProt P13569, DEL508-508); experiment: H441 cell Emax and EC50: HRP-tagged ΔF508-CFTR cell-surface luminescence assay; assay type: cell-based; conditions: H441 cells expressing HRP-tagged ΔF508-CFTR, 27° C. for two nights; for EC50: 15-point dose-response; for Emax: NCI-H441, % of maximum VX809 signal
# T2 construct: expressed in transfected cells; host or cells: H441 carcinoma cell line (G418 selection)
# T2 sequence (P13569 with tags, fused parts or gaps DEL508-508): as above
# From the text: Example 36: H441 Cell Emax and EC50
# Two cell lines were used, the H441 carcinoma line and the CFHBE41o− (41o−) human bronchial epithelial line. Both cell lines expressed human Cystic Fibrosis Transmembrane Conductance Regulator (CFTR) harboring the ΔF508 mutation and with an in-frame fusion in CFTR extracellular loop 4 of Horse Radish Peroxidase (HRP) under control of the CMV promoter. In the presence of the HRP tag, ΔF508-CFTR transported to the cell surface was detectable upon addition of an HRP substrate (Luminata Forte). Both cell types were cultivated at 37° C. with CO2.
# For both cell types, the medium was changed every other day unless the culture was at low % confluence. Cells were used for the assays at ˜75% confluence.
# DMSO/Compound Dilutions Plate for 15-Point Dose-Response Testing
# To a polypropylene (PP) 384-well plate, 15 μls DMSO was added to all wells in columns 1-22 and 24 (low Control). 15 μls of 260 μM VX809 (Lumacaftor), Selleckchem S1565, was added to column 23 wells (high Control). 15 μls of 10 mM test compound or VX809 (control) were added to wells of row A. Serial dilutions of Row A compound were performed 2×15 μls in rows A through 0 (15-point).
# A PP, 384-well plate containing the appropriate cell culture medium was prepared for each assay plate with 100 μls per well. For the doxycycline-induced 41o− cells, doxycycline for both the assay plate and the medium dilution plate was added at 0.0005 mg/ml to the medium.
# Both cell lines were plated for the assay at 30 μls per 384-well at 3.4×10^e5 cells per ml (˜10K cells/well). H441 cells were plated on opaque, white, Corning plate 3704. 41o− cells were plated on collagen-coated opaque, white, Corning plate 356665. For 41o− cells, doxycycline was added to the medium.
# Compound Addition/Assay Incubation
# Using FX (Beckman) protocol, 10 μls diluted compound or medium was added per well to the Assay Plate as: 2 μls DMSO Dilution plate well is diluted in 100 μls of the Medium Dilution Plate well, mixed, and 10 μls is transferred to the Assay Plate.
# The final assay dilution series is 24.5, 12.3, 6.1, 3.1, 1.5, 0.8, 0.4, 0.2, 0.1, 0.05, 0.02, 0.01, 0.006, 0.003, 0.001 and 0 μM. The 41o− assay plates were incubated at 37° C. w/CO2, the H441 assay plates were incubated at 27° C. w/CO2, each overnight for two nights.
# Assay Result Determination
# After being brought to room temperature, the assay plate liquid was removed. 30 uls of Luminata Forte (Millipore ELLUF0100) was added per well and incubated at room temperature for 10 min. The plates were then read on a Topcount, protocol LumiMatti (CPS, luminescence). The data was analyzed for % of maximum, maximum VX809 signal, and EC50 using Pearl and SPEED tools.
Structure (SMILES),TECC24 AUC fold over DMSO [1],EC50 [2] [nM],Emax [2] [%]
"CC(C)(C)[C@H](NC(=O)c1ccc2sccc2c1OCc1nc2ccccc2s1)C(=O)O [Compound 32-13, (2S)-2-(4-(benzo[d]thiazol-2-ylmethoxy)-benzo[b]thiophene-5-carboxamido)-3,3-dimethylbutanoic acid]",C (“C” refers to AUC @10 μM < 4),4120,143
"CC(C)(C)[C@H](NC(=O)c1ccc2sccc2c1OCC1CCCCC1)C(=O)O [Compound 32-14, (2S)-2-(4-(cyclohexylmethoxy)-benzo[b]thiophene-5-carboxamido)-3,3-dimethylbutanoic acid]",C (“C” refers to AUC @10 μM < 4),2780,210
"Cc1cc2ccc(C(=O)N[C@H](C(=O)O)C(C)(C)C)c(OCc3ccc(OC(F)(F)F)cc3)c2s1 [Compound 33-8, (2S)-3,3-dimethyl-2-(2-methyl-7-((4-(trifluoromethoxy)benzyl)oxy)-benzo[b]thiophene-6-carboxamido)butanoic acid]",A (“A” refers to AUC @10 μM > 6),658,155
"CCC(C)(C)[C@H](NC(=O)c1ccc2sc(C)c(Cl)c2c1OCc1ccc(OC(F)(F)F)cc1)C(=O)O [Compound 33-9, (2S)-2-(3-chloro-2-methyl-4-((4-(trifluoromethoxy)benzyl)oxy)-benzo[b]thiophene-5-carboxamido)-3,3-dimethylpentanoic acid]",A (“A” refers to AUC @10 μM > 6),1130,250
"CCc1cc2ccc(C(=O)N[C@H](C(=O)O)C(C)(C)CC)c(OCc3ccc(OC(F)(F)F)cc3)c2s1 [Compound 33-10, (2S)-2-(2-ethyl-7-((4-(trifluoromethoxy)benzyl)oxy)-benzo[b]thiophene-6-carboxamido)-3,3-dimethylpentanoic acid]",B (“B” refers to AUC @10 μM between 4-6),1250,216
"CC(C)c1cc2ccc(C(=O)N[C@H](C(=O)O)C(C)(C)C)c(OCc3ccc(OC(F)(F)F)cc3)c2s1 [Compound 33-12, (2S)-2-(2-isopropyl-7-((4-(trifluoromethoxy)benzyl)oxy)-benzo[b]thiophene-6-carboxamido)-3,3-dimethylbutanoic acid]",C (“C” refers to AUC @10 μM < 4),999,150

# The next lines start with the values.
TECC24 AUC fold over DMSO [1],EC50 [2] [nM],Emax [2] [%],Structure (SMILES)
A (“A” refers to AUC @10 μM > 6),647,308,"CCC(C)(C)[C@H](NC(=O)c1ccc2sc(C)c(Cl)c2c1OCc1ccc(C(F)(F)F)cc1)C(=O)O [Compound 33-1, (2S)-2-[[3-chloro-2-methyl-4-[[4-(trifluoromethyl)phenyl]methoxy]benzothiophene-5-carbonyl]amino]-3,3-dimethyl-pentanoic acid]"
B (“B” refers to AUC @10 μM between 4-6),441,216,"CC(C)CCc1cc2c(OCc3ccc(C(F)(F)F)cc3)c(C(=O)N[C@H](C(=O)O)C(C)(C)C)ccc2s1 [Compound 33-2, (2S)-2-[[2-isopentyl-4-[[4-(trifluoromethyl)phenyl]methoxy]benzothiophene-5-carbonyl]amino]-3,3-dimethyl-butanoic acid]"
A (“A” refers to AUC @10 μM > 6),884,350,"CC(C)(C)[C@H](NC(=O)c1ccc2sc(C(F)F)cc2c1OCc1ccc(C(F)(F)F)cc1)C(=O)O [Compound 33-3, (2S)-2-(2-(difluoromethyl)-4-((4-(trifluoromethyl)benzyl)oxy)-benzo[b]thiophene-5-carboxamido)-3,3-dimethylbutanoic acid]"
A (“A” refers to AUC @10 μM > 6),2350,232,"CC(C)c1cc2c(OCc3ccc(OC(F)(F)F)cc3)c(C(=O)N[C@H](C(=O)O)C(C)(C)C)ccc2s1 [Compound 33-4, (2S)-2-(2-isopropyl-4-((4-(trifluoromethoxy)benzyl)oxy)-benzo[b]thiophene-5-carboxamido)-3,3-dimethylbutanoic acid]"
A (“A” refers to AUC @10 μM > 6),262,251,"CC(C)(C)[C@H](NC(=O)c1ccc2sc(Cl)cc2c1OCc1ccc(C(F)(F)F)cc1)C(=O)O [Compound 33-5, (2S)-2-(2-chloro-4-((4-(trifluoromethyl)benzyl)oxy)-benzo[b]thiophene-5-carboxamido)-3,3-dimethylbutanoic acid]"
A (“A” refers to AUC @10 μM > 6),500,279,"CCC(C)(C)[C@H](NC(=O)c1ccc2sc(Cl)cc2c1OCc1ccc(C(F)(F)F)cc1)C(=O)O [Compound 33-6, (2S)-2-(2-chloro-4-((4-(trifluoromethyl)benzyl)oxy)-benzo[b]thiophene-5-carboxamido)-3,3-dimethylpentanoic acid]"
A (“A” refers to AUC @10 μM > 6),641,312,"COc1cc2c(OCc3ccc(C(F)(F)F)cc3)c(C(=O)N[C@H](C(=O)O)C(C)(C)C)ccc2s1 [Compound 33-7, (2S)-2-(2-methoxy-4-((4-(trifluoromethyl)benzyl)oxy)-benzo[b]thiophene-5-carboxamido)-3,3-dimethylbutanoic acid]"
B (“B” refers to AUC @10 μM between 4-6),474,187,"Cc1cc2ccc(C(=O)N[C@H](C(=O)O)C(C)(C)C)c(OCc3ccc(C(F)(F)F)cc3)c2s1 [Compound 33-11, (2S)-3,3-dimethyl-2-(2-methyl-7-((4-(trifluoromethyl)benzyl)oxy)-benzo[b]thiophene-6-carboxamido)butanoic acid]"
